Measurements as given in ChEMBL document CHEMBL5584243, “Discovery of JNJ-74856665: A Novel Isoquinolinone DHODH Inhibitor for the Treatment of AML” (J Med Chem, 2024).
Values after ≈ are worked out from the molar mass of the structure shown.

Assays:
[1] = Equilibrium solubility of compound in PBS at pH 2 incubated for 2 to 5 days by HPLC analysis; type: physicochemical; settings: time 2-5 day; for solubility thermodynamic: PBS
MOLM-13 = test: Antiproliferative activity against human MOLM-13 cells assessed as inhibition of cell growth incubated for 72 hrs by CellTiter-Glo assay; type: functional, cell-based; settings: MOLM-13, 72 h
[2] = Equilibrium solubility of compound in PBS at pH 7 incubated for 2 to 5 days by HPLC analysis; type: physicochemical; settings: time 2-5 day
[3] = Metabolic stability in mouse liver microsomes assessed as half life incubated upto 60 mins in presence of NADPH by LC-MS/MS analysis; type: ADME, Microsome
[4] = Metabolic stability in human liver microsomes assessed as half life incubated upto 60 mins in presence of NADPH by LC-MS/MS analysis; type: ADME, Microsome
[5] = Passive permeability across apical to basolateral side in dog MDCK-MDR1 cells; type: ADME, cell-based, Canis lupus familiaris
[6] = AUC (0 to infinity) in C57BL mouse at 2 mg/kg,iv measured upto 24 hrs by LC-MS/MS analysis; type: ADME, organism-based; settings: in vivo
[7] = Plasma protein binding in human at 1 uM incubated for 6.5 hrs by LC-MS/MS analysis; type: ADME, cell-free; settings: read-out: PPB (converted)
[8] = Volume of distribution at steady state in C57BL mouse at 2 mg/kg,iv measured upto 24 hrs by LC-MS/MS analysis; type: ADME, organism-based; settings: in vivo, read-out: Vdss
[9] = Oral bioavailability in C57BL mouse at 10 mg/kg measured upto 24 hrs by LC-MS/MS analysis; type: ADME, organism-based; settings: in vivo
[10] = Equilibrium solubility of compound in SGF at pH 1 using amorphous form of sample incubated for 2 to 5 days by HPLC analysis; type: ADME; settings: time 2-5 day
[11] = Plasma protein binding in C57BL mouse at 1 uM incubated for 6.5 hrs by LC-MS/MS analysis; type: ADME, cell-free; settings: read-out: PPB (converted)
[12] = Tmax in C57BL mouse at […] measured upto 24 hrs by LC-MS/MS analysis; type: ADME, organism-based; settings: in vivo
[13] = Lipophilicity, logD of compound; type: physicochemical; settings: octanol/water
[14] = Cmax in C57BL mouse at […] measured upto 24 hrs by LC-MS/MS analysis; type: ADME, organism-based; settings: in vivo
[15] = Equilibrium solubility of compound in FaSSIF at pH 6.5 using amorphous form of sample incubated for 2 to 5 days by HPLC analysis; type: ADME; settings: time 2-5 day
[16] = Half life in C57BL mouse at 2 mg/kg,iv measured upto 24 hrs by LC-MS/MS analysis; type: ADME, organism-based; settings: in vivo
[17] = biological target: Dihydroorotate dehydrogenase (quinone), mitochondrial (Homo sapiens, UniProt Q02127); test: Inhibition of recombinant human DHODH followed by DHO substrate by DCIP dye absorbance based spectrophotometric analysis
Sequence of Dihydroorotate dehydrogenase (quinone), mitochondrial (Q02127 whole entry): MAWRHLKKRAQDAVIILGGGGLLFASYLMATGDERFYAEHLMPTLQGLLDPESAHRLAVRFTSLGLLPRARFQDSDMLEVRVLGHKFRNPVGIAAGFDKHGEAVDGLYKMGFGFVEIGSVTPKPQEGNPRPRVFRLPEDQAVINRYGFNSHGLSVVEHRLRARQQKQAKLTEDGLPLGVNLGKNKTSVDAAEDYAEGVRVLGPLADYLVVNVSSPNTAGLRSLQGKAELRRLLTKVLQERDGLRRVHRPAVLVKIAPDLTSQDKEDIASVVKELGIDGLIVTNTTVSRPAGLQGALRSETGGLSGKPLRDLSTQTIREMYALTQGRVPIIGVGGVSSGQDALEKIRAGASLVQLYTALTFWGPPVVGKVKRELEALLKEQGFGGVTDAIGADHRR

[18] = biological target: T1, Aryl hydrocarbon receptor (Homo sapiens, UniProt P35869); test: Activation of AhR (unknown origin) at 1 to 10 uM; settings: dose 1-10 µM
T1 sequence (P35869 whole entry): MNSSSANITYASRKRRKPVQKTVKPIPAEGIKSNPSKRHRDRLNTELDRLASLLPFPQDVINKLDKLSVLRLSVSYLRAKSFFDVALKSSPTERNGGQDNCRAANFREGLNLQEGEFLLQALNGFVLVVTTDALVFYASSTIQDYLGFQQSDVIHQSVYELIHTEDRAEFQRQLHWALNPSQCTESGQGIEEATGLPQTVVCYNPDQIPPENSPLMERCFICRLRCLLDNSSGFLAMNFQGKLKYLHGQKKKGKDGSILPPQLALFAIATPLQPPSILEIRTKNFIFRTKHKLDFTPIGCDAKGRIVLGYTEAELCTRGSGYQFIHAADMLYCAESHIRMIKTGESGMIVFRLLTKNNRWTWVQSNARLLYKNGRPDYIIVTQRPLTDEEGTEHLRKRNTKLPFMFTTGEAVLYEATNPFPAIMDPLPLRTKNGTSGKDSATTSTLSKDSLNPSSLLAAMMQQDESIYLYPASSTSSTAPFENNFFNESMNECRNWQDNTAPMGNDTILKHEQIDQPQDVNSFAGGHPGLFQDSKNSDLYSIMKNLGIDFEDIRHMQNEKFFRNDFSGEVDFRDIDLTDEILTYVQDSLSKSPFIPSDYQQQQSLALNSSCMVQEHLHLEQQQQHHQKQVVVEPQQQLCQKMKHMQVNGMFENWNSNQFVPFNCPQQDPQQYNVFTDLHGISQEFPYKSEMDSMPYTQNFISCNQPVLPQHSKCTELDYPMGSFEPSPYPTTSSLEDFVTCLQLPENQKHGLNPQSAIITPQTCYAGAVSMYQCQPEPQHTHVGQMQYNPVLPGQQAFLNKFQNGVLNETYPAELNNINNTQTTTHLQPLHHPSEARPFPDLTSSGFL

Compound	solubility thermodynamic [1] [µM]	IC50 (MOLM-13) [nM]	solubility thermodynamic [2] [µM]	half-life [3] [h]	half-life [4] [h]	Papp A→B [5] [×10⁻⁶ cm/s]	other results
CCn1c(CO)nn(-c2cc3c([C@H](C)C(F)(F)F)cn(-c4ccccc4C)c(=O)c3cc2F)c1=O	164 (≈ 80.4 µg/mL)	0.59	180 (≈ 88.3 µg/mL)	> 3	> 3	20.3	–
CCn1c(CO)nn(-c2cc3c(C(C)C)cn(-c4ccccc4F)c(=O)c3cc2F)c1=O	19 (≈ 8.37 µg/mL)	2.1	19 (≈ 8.37 µg/mL)	> 3	> 3	30.1	–
CCn1c(CO)nn(-c2cc3c(C(C)C)cn(-c4cc(F)ccc4C)c(=O)c3cc2F)c1=O	30 (≈ 13.6 µg/mL)	0.86	30 (≈ 13.6 µg/mL)	> 3	> 3	45.9	–
CCn1c(CO)nn(-c2cc3c(C(C)C)cn(-c4c(C)cccc4F)c(=O)c3cc2F)c1=O	23 (≈ 10.5 µg/mL)	0.69	24 (≈ 10.9 µg/mL)	> 3	> 3	47.4	–
CCn1c(CO)nn(-c2cc3c(C(C)C)cn(-c4cccc(F)c4C)c(=O)c3cc2F)c1=O	235 (≈ 107 µg/mL)	5.6	189 (≈ 85.9 µg/mL)	> 3	> 3	23.5	–
CCn1c(CO)nn(-c2cc3c([C@@H](C)C(F)(F)F)cn(-c4ccccc4C)c(=O)c3cc2F)c1=O	184 (≈ 90.2 µg/mL)	0.42	181 (≈ 88.8 µg/mL)	> 3	> 3	< 41	AUC [6]: 39000 ng·h/mL; fraction unbound at 6.5 h, 1 µM [7]: 0.1; Vd [8]: 1.3 L/kg; bioavailability [9]: 98%; solubility thermodynamic [10]: < 5 µg/mL; fraction unbound at 6.5 h, 1 µM [11]: 0.093; Tmax [12]: 1.5 h; logD [13]: 2.6; Cmax [14]: 4500 ng/mL; solubility thermodynamic [15]: 41 µg/mL (≈ 83.6 µM); half-life [16]: 4 h
CCn1c(CO)nn(-c2cc3c(C(C)C)cn(-c4ccccc4OC)c(=O)c3cc2F)c1=O	19 (≈ 8.6 µg/mL)	1	20 (≈ 9.05 µg/mL)	> 3	> 3	25.1	–
CCn1c(CO)nn(-c2cc3c(C(C)C)cn(-c4ccccc4C(F)F)c(=O)c3cc2F)c1=O	228 (≈ 108 µg/mL)	0.56	11 (≈ 5.2 µg/mL)	> 3	2.98	39	–
CCn1c(CO)nn(-c2nc(OC(C)C(F)(F)F)c(C(=O)Nc3c(F)cccc3Cl)cc2F)c1=O (configuration not stated)	–	0.16	< 4	–	–	–	IC50 [17]: 0.2 nM
CCn1c(CO)nn(-c2cc3c(C(C)C)cn(-c4c(C)cnc(OC)c4Cl)c(=O)c3cc2F)c1=O	78 (≈ 39.2 µg/mL)	2.4	21 (≈ 10.5 µg/mL)	> 3	> 3	42.6	AUC [6]: 82500 ng·h/mL; fraction unbound at 6.5 h, 1 µM [7]: 0.059; Vd [8]: 2.1 L/kg; bioavailability [9]: 109%; solubility thermodynamic [10]: < 5 µg/mL; fraction unbound at 6.5 h, 1 µM [11]: 0.038; Tmax [12]: 1.5 h; Cmax [14]: 4100 ng/mL; solubility thermodynamic [15]: 16 µg/mL (≈ 31.9 µM); half-life [16]: 7 h
CCn1c(CO)nn(-c2cc3c(C4(C)CC4)cn(-c4c(F)cccc4Cl)c(=O)c3cc2F)c1=O	–	3.1	–	–	–	–	–
CCn1c(CO)nn(-c2cc3c(C(C)C)cn(-c4ccccc4C(F)(F)F)c(=O)c3cc2F)c1=O	–	0.63	39 (≈ 19.1 µg/mL)	> 3	> 3	40.4	AUC [6]: 71100 ng·h/mL; fraction unbound at 6.5 h, 1 µM [7]: 0.063; Vd [8]: 1.2 L/kg; solubility ([1]; buffer): Not Active; bioavailability [9]: 127%; solubility thermodynamic [10]: 17 µg/mL (≈ 34.7 µM); fraction unbound at 6.5 h, 1 µM [11]: 0.067; Tmax [12]: 1.3 h; Cmax [14]: 5700 ng/mL; solubility thermodynamic [15]: 97 µg/mL (≈ 198 µM); half-life [16]: 4.3 h
CCn1c(CO)nn(-c2nc3c(C(C)C)cn(-c4c(F)cccc4Cl)c(=O)c3cc2F)c1=O	–	0.44	–	–	–	–	–
CCc1ccccc1-n1cc(C(C)C)c2cc(-n3nc(CO)n(CC)c3=O)c(F)cc2c1=O	193 (≈ 86.9 µg/mL)	1.8	157 (≈ 70.7 µg/mL)	1.83	> 3	37.3	–
CCn1c(CO)nn(-c2cc3c(C(C)C)cn(-c4ccc(F)cc4C)c(=O)c3cc2F)c1=O	25 (≈ 11.4 µg/mL)	0.67	266 (≈ 121 µg/mL)	> 3	> 3	48.2	logD [13]: 2.7
Cc1oncc1C(=O)Nc1ccc(C(F)(F)F)cc1 [LEFLUNOMIDE]	–	–	–	–	–	–	Activity [18]: Active
CCn1c(CO)nn(-c2cc3c(C(C)C)cn(-c4ccccc4Cl)c(=O)c3cc2F)c1=O	153 (≈ 69.9 µg/mL)	0.28	155 (≈ 70.8 µg/mL)	> 3	> 3	50.7	–
C=C(C)c1cn(-c2c(F)cccc2Cl)c(=O)c2cc(F)c(-n3nc(CO)n(CC)c3=O)nc12	–	1.1	–	–	–	–	–
